This series can be described thus: Plasma 1,25-D3 concentration in mice after a single oral dose (RIA).

Turning to `C=C1/C(=C\C=C2/CCC[C@]3(C)[C@@H]([C@H](C)CCCC(C)(C)O[C@@H]4O[C@H](C(=O)O)[C@@H](O)[C@H](O)[C@H]4O)CC[C@@H]23)C[C@@H](O)C[C@@H]1O` [β-gluc-1,25-D3, 25-β-glucuronide-1,25-dihydroxyvitamin D3], the “plasma 1,25-D3 concentration” value (6 pmol per os, 6 hr time point) is recorded as “not significantly increased”. Besides, for the setting “24 pmol per os”, the “peak plasma 1,25-D3, fold over control mouse plasma 1,25-D3” value was found to be 3.5 fold; the “peak plasma concentration of 1,25-D3” value is 325 pg/mL; the “time of peak plasma 1,25-D3 concentration” value was “approximately 3 hr”. The “plasma 1,25-D3 concentration” value (24 pmol per os, 24 hrs after treatment) is “slightly below the concentration observed in control animals”. Moreover, the “levels of 1,25-D3 in the blood, 1,25-D3 versus β-gluc-1,25-D3” value (6 hrs following treatment, each dose 6-48 pmol) is reported as “comparable at each concentration”.

The values are drawn from patent publication US20110152207A1, “USE OF VITAMIN D GLYCOSIDES AND SULFATES FOR TREATMENT OF DISEASE” (priority 2009, published 2011).
